“Also recorded” adds a separate entry of the source. Where two headings read alike, the source gives them in different places.

One data set deals with DA terminals. Kind of data set: labeling and destaining of DA terminals in live striatal acute slice. Type of data set: cell-based, mouse. From the text:
Distribution of FFN 511 was compared to DA neurons using striatal slices prepared from a transgenic mouse expressing GFP under the control of tyrosine hydroxylase (TH) promoter (36).
As FFN 511 was applied in a “pulse-chase” pattern, with the extracellular probe washed out following accumulation in the terminals, these experiments essentially measure the amount of DA remaining in the terminal and the released transmitter. The probability of release from a given terminal under a particular stimulus condition is simply the fractional destaining, i.e., Pterminal=Ft/(Ft0−Fbkgnd) Pterminal=1−(Ft−Fbkg)/(Ft0−Fbkg),
where Ft0 is the initial fluorescent intensity and Fbkgnd is the label remaining after maximal stimulus is applied.

Data set [1] in a line: photophysical characterization (fluorescence spectra). Type of data set: physicochemical. Conditions: for λem / λex: 100 mM sodium phosphate pH 7.4, 10 uM probe; for pH dependency of fluorescence: spectra at pH 2, 5, 7.4, 9 and 12. The protocol: All spectra were recorded in 100 mM sodium phosphate (pH 7.4) unless otherwise indicated. Recorded λmax is that of the longest wavelength transition. Extinction coefficients were reported as the average of at least three independent preparations of the probes. Fluorescence measurements were taken on a Jobin Yvon Fluorolog fluorescence spectrofluorometer in 100 mM sodium phosphate pH 7.4 at a concentration of 10 uM in probe, excited at their respective λmax.

Data set [2] has as its system chromaffin cells. Nature of the data set: probe uptake and labeling in chromaffin cells by fluorescence microscopy. Format: cell-based, mouse. The source says:
Chromaffin cells are an excellent model system as the cytoplasm of these cells in culture is almost completely filled with large dense core vesicles that accumulate catecholamines by VMAT.
If necessary, metabolism of the probes by MAO (present in mitochondria) may be reduced by the addition of a suitable inhibitor (deprenyl for MAO B, clorgyline for MAO A) or by simply methylating the α-position of the amine (10, 14).
Catecholamines are stored in chromaffin large dense core vesicles (LDCVs), which contain vesicular monoamine transporter 1 (VMAT1). Although VMAT 1 and 2 are distinct proteins, they share many functional characteristics.

Another data set deals with T1, VMAT2 (Homo sapiens, UniProt Q05940).
T1 construct: expressed in transfected cells; host or cells: HEK cells, stably transfected; membranes
T1 sequence (Q05940 whole entry, species assumed): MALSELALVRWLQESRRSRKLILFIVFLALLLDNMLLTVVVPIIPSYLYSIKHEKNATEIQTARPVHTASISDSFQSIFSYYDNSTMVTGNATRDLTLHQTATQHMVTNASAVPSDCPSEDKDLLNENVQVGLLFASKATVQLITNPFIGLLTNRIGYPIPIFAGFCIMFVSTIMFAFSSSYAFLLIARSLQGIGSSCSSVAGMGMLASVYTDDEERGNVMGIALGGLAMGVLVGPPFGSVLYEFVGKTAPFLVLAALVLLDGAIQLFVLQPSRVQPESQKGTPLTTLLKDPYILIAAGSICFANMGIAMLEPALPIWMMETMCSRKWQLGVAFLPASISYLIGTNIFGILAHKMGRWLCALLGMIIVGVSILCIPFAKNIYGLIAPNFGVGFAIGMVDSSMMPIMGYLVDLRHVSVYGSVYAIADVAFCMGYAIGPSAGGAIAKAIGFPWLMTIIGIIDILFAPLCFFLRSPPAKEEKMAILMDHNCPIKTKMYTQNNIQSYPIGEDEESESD
Nature of the data set: in vitro competitive binding assay, membranes from HEK cells stably transfected with VMAT2. To be noted: inhibition of binding to membranes from HEK cells stably transfected with VMAT2; read-out: apparent IC50. From the text: On the basis of initial encouraging results, compound FFN 511 was submitted to rigorous investigation, from which it emerged as a promising imaging probe. Catecholamines are stored in chromaffin large dense core vesicles (LDCVs), which contain vesicular monoamine transporter 1 (VMAT1). Although VMAT 1 and 2 are distinct proteins, they share many functional characteristics.

The test system of data set [3] is chromaffin cells. Nature of the data set: TIRF assay of stimulation-dependent exocytosis from FFN 511-loaded chromaffin granules. Type of data set: cell-based, mouse. To be noted: single LDCV. The source says: Total internal reflectance fluorescence microscopy (TIRF) was used as a functional assay for the ability of FFN 511-loaded chromaffin granules to undergo stimulation-dependent exocytosis. TIRF allows for fluorescence excitation in a narrow −100 nm thick layer of the cell immediately adjacent to the surface.

A further data set concerns evoked DA release. Nature of the data set: evoked DA release in slice measured by cyclic voltammetry. Format: cell-based, mouse. The source says:
FFN 511 was destained by neuronal stimulation in a calcium-dependent manner under conditions identical to those that release DA as measured by simultaneous cyclic voltammetry. (FFN 511 is not oxidized and not measured by cyclic voltammetry).

Where [4] appears, read: 4 Hz stimulation, in the presence of calcium.

Regarding `COc1cc2c(cc1OC)C1CC(=O)C(CC(C)C)CN1CC2` (stereo not shown) [tetrabenazine, reference compound], the “inhibition of 511 labeling by VMAT2 inhibitors” value with DA terminals (striatal slice, reserpine 10 μM, 2 hours (FIG. 36B)) is listed as “strongly inhibited”.
In data set [1], `NCCNc1ccc2ccc(=O)oc2c1` [Probe 505, 7-(2-Amino-ethylamino)-coumarin] registered a λem of 455 nm and a λex of 361 nm.
On to `CCN(CC)c1ccc2c(C)cc(=O)oc2c1` [Coumarin 1, reference compound], for which, in data set [1], the “behaviour of fluorescence in water / aqueous buffer solution” value is given as “drops in water”, the λem was determined as 470 nm and the λex amounted to 384 nm.
For the compound `CC(N)Cc1ccccc1` (stereo not shown) [amphetamine, reference compound], the “loss of 511 fluorescence” value in the data set on DA terminals (10 μM, 10 min, striatal slice) is listed as about 50%.
With `CN(C)c1ccc2cc3ccc(N(C)C)cc3nc2c1` [acridine orange, reference compound], the “behaviour of fluorescence in water / aqueous buffer solution” value in data set [1] is “drops in water”.
For orientation: IC50 means the concentration that inhibits the measured activity by half. Take `NCCc1cc(=O)oc2c3c4c(cc12)CCCN4CCC3` [Probe 511, 8-(2-Amino-ethyl)-2,3,5,6-tetrahydro-1H,4H-11-oxa-3a-aza-benzo[de]anthracen-10-one]: in the data set with chromaffin cells [2], the “labeling of chromaffin cells” value is on record as “selectively label healthy chromaffin cells”. The “duration of linear increase of intracellular probe concentration (fluorescence)” value in the data set with chromaffin cells [2] (500 nM in physiological saline solution) is “at least 60 minutes”. For the same compound, the “uptake into chromaffin vesicles” value in the data set on chromaffin cells [2] (At 50 nM) was “actively taken up into chromaffin vesicles”. Moreover, the “time window in which uptake is linear” value in the data set on chromaffin cells [2] (FFN 511 500 nM, single chromaffin cells) is 10 to 60 min. The “accumulation in acidic compartments of the cells” value with chromaffin cells [2] (abolished by chloroquine exposure) is listed as “accumulates in acidic compartments”. For the same compound, in the data set with chromaffin cells [2] (chloroquine 100 μM), the “fluorescence after addition of lipophilic weak base chloroquine” value is “completely abolished”. Moreover, in the data set with chromaffin cells [2] (chromaffin cells), the “staining of cell nuclei” value was “nuclear exclusion”. Also, in the data set on chromaffin cells [2] (chromaffin cells, TBZ 10 uM (FIG. 20), p=0.001 vs control), the “effect of VMAT inhibitor tetrabenazine on probe uptake” value is “abolished by Tetrabenazine; also recorded: inhibited by tetrabenazene”. At VMAT2, the 50% inhibitory concentration (IC50) is 2.5 µM. For the same compound, in the data set with chromaffin cells [3], the “release from LDCVs on high potassium stimulation” value was “released by exocytosis”. Moreover, in the data set with evoked DA release, the “effect on evoked DA release at higher concentrations” value was “reduced evoked DA release” and the “effect on evoked DA release at levels sufficient to label the terminals” value is recorded as “did not alter evoked DA release”. Moreover, the emission maximum in data set [1] (compared with GFP) is given as about 500 nm. Further, in data set [1], the “pH dependency of fluorescence” value is recorded as “increased fluorescence seen at alkaline pH values”. In the data set with DA terminals (setting [4]), the “number of action potentials to release about 50% of the terminal content” value was determined as 640 action potentials and the “time to release about 50% of the terminal content” value is about 160 s. For the same compound, in the data set on DA terminals (acute slices, mouse CNS), the “fluorescent labeling in corpus callosum” value is “no labeling”, the “fluorescent labeling in cortex” value is reported as “fainter fluorescence with patchy distribution” and the “fluorescent labeling in striatum” value is reported as “clearly observed in presynaptic terminals”. In addition, in the data set on DA terminals (injected hemisphere, slices 21 days post-lesion), the “FFN 511 labeling after unilateral 6-OHDA lesion of DA neurons” value is recorded as “nearly completely abolished”. Also, in the data set on DA terminals (neuronal stimulation), the “calcium dependence of stimulated destaining” value is “completely dependent on the presence of calcium”.
For `COC(=O)[C@H]1[C@H]2C[C@@H]3c4[nH]c5cc(OC)ccc5c4CCN3C[C@H]2C[C@@H](OC(=O)c2cc(OC)c(OC)c(OC)c2)[C@@H]1OC` [reserpine, reference compound], the “inhibition of 511 labeling by VMAT2 inhibitors” value in the data set on DA terminals is listed as “strongly inhibited”.
In data set [1], `O=C(O)C(F)(F)F.O=c1cc(O)c2ccc(N3CCNCC3)cc2o1` [Probe 484, 4-(4—Hydroxy-coumarin-7-yl)-piperazin-1-ium trifluoroacetate] displayed a λem of 385 nm and a λex of 319 nm. In addition, the “pH dependency of fluorescence” value in data set [1] (trifluoroacetate) is reported as “possess pH-dependency; also recorded: shift in fluorescence emission maxima seen with changing pH”.
In the case of `NCCc1ccc(O)c(O)c1` [DA, dopamine, reference compound], the IC50 on VMAT2 is about 1 µM.
